In patent publication US8952024B2, “Herbicidal pyrimidone derivatives” (E I du Pont de Nemours and Company, priority 2009, dated 2015):

How the values were obtained:
Test in all cases: Test B pre-/postemergence plant response
Assay type in all cases: in vivo
[1] = test system: velvetleaf (Abutilon theophrasti); conditions: for Plant response rating, Velvetleaf: Postemergence; for Velvetleaf plant response rating (0 to 100 scale): 62 g ai/ha, postemergence, 0 is no effect, 100 is complete control
Procedure, shortened: (§1)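 Response scores were assigned visually after 13 to 15 days in a greenhouse, comparing treated pots with controls on a 0–100 scale where 100 denotes complete control. Preemergence treatments went onto freshly seeded loam/sand soil; postemergence treatments onto plants 2 to 18 cm tall.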

[2] = test system: yellow nutsedge (Cyperus esculentus); conditions: for Plant response rating, Nutsedge, Yellow: Postemergence; for Nutsedge, Yellow plant response rating (0 to 100 scale): 62 g ai/ha, postemergence, 0 is no effect, 100 is complete control
Procedure, shortened: as §1

[3] = test system: Italian ryegrass (Lolium multiflorum); conditions: for Plant response rating, Ryegrass, Italian: Postemergence; for Ryegrass, Italian plant response rating (0 to 100 scale): 62 g ai/ha, postemergence, 0 is no effect, 100 is complete control
Procedure, shortened: as §1

[4] = test system: goosegrass (Eleusine indica); conditions: for Plant response rating, Goosegrass: Postemergence; for Goosegrass plant response rating (0 to 100 scale): 62 g ai/ha, postemergence, 0 is no effect, 100 is complete control
Procedure, shortened: as §1

[5] = test system: woolly cupgrass (Eriochloa villosa); conditions: for Plant response rating, Cupgrass, Woolly: Postemergence; for Cupgrass, Woolly plant response rating (0 to 100 scale): 62 g ai/ha, postemergence, 0 is no effect, 100 is complete control
Procedure, shortened: as §1

[6] = test system: downy bromegrass (Bromus tectorum); conditions: for Plant response rating, Bromegrass, Downy: Postemergence; for Bromegrass, Downy plant response rating (0 to 100 scale): 62 g ai/ha, postemergence, 0 is no effect, 100 is complete control
Procedure, shortened: as §1

[7] = test system: pigweed (Amaranthus retroflexus); conditions: for Plant response rating, Pigweed: Postemergence; for Pigweed plant response rating (0 to 100 scale): 62 g ai/ha, postemergence, 0 is no effect, 100 is complete control
Procedure, shortened: as §1

[8] = test system: ragweed (common ragweed, Ambrosia elatior); conditions: for Plant response rating, Ragweed: Postemergence; for Ragweed plant response rating (0 to 100 scale): 62 g ai/ha, postemergence, 0 is no effect, 100 is complete control
Procedure, shortened: as §1

[9] = test system: wheat (Triticum aestivum); conditions: for Plant response rating, Wheat: Postemergence; for Wheat plant response rating (0 to 100 scale): 62 g ai/ha, postemergence, 0 is no effect, 100 is complete control
Procedure, shortened: as §1

[10] = test system: green foxtail (Setaria viridis); conditions: for Plant response rating, Foxtail, Green: Postemergence; for Foxtail, Green plant response rating (0 to 100 scale): 62 g ai/ha, postemergence, 0 is no effect, 100 is complete control
Procedure, shortened: as §1

[11] = test system: Surinam grass (Brachiaria decumbens); conditions: for Plant response rating, Surinam Grass: Postemergence; for Surinam Grass plant response rating (0 to 100 scale): 62 g ai/ha, postemergence, 0 is no effect, 100 is complete control
Procedure, shortened: as §1

[12] = test system: large crabgrass (Digitaria sanguinalis); conditions: for Plant response rating, Crabgrass, Large: Postemergence; for Crabgrass, Large plant response rating (0 to 100 scale): 62 g ai/ha, postemergence, 0 is no effect, 100 is complete control
Procedure, shortened: as §1

[13] = test system: lambsquarters (Chenopodium album); conditions: for Plant response rating, Lambsquarters: Postemergence; for Lambsquarters plant response rating (0 to 100 scale): 62 g ai/ha, postemergence, 0 is no effect, 100 is complete control
Procedure, shortened: as §1

[14] = 31 g ai/ha, 0 to 100 scale (0 no effect, 100 complete control)
[15] = 125 g ai/ha, scale 0 to 100 (0 no effect, 100 complete control)
[16] = 250 g ai/ha, scale 0 to 100 (0 no effect, 100 complete control), 13 to 15 days

## O=C1CCCC(O)=C1C(=O)c1cnc(-c2ccccc2)n(C2CCCC2)c1=O [Compound 131]
[1]; 16 g ai/ha, 0 to 100 scale
  Plant response rating, Velvetleaf: 70
[1]; 13 to 15 days
  Velvetleaf plant response rating (0 to 100 scale): 85
[1]; [14]
  Plant response rating, Velvetleaf: 80
[1]; [15]
  Plant response rating, Velvetleaf: 98
[2]; 16 g ai/ha, 0 to 100 scale
  Plant response rating, Nutsedge, Yellow: 0
[2]; 13 to 15 days
  Nutsedge, Yellow plant response rating (0 to 100 scale): 25
[2]; [14]
  Plant response rating, Nutsedge, Yellow: 15
[2]; [15]
  Plant response rating, Nutsedge, Yellow: 45
[3]; 16 g ai/ha, 0 to 100 scale
  Plant response rating, Ryegrass, Italian: 0
[3]; 13 to 15 days
  Ryegrass, Italian plant response rating (0 to 100 scale): 0
[3]; [14]
  Plant response rating, Ryegrass, Italian: 0
[3]; [15]
  Plant response rating, Ryegrass, Italian: 0
[4]; 16 g ai/ha, 0 to 100 scale
  Plant response rating, Goosegrass: 65
[4]; 13 to 15 days
  Goosegrass plant response rating (0 to 100 scale): 65
[4]; [14]
  Plant response rating, Goosegrass: 65
[4]; [15]
  Plant response rating, Goosegrass: 75
[5]; 16 g ai/ha, 0 to 100 scale
  Plant response rating, Cupgrass, Woolly: 10
[5]; 13 to 15 days
  Cupgrass, Woolly plant response rating (0 to 100 scale): 60
[5]; [14]
  Plant response rating, Cupgrass, Woolly: 50
[5]; [15]
  Plant response rating, Cupgrass, Woolly: 65
[6]; 16 g ai/ha, 0 to 100 scale
  Plant response rating, Bromegrass, Downy: 0
[6]; 13 to 15 days
  Bromegrass, Downy plant response rating (0 to 100 scale): 0
[6]; [14]
  Plant response rating, Bromegrass, Downy: 0
[6]; [15]
  Plant response rating, Bromegrass, Downy: 0
[7]; 16 g ai/ha, 0 to 100 scale
  Plant response rating, Pigweed: 60
[7]; 13 to 15 days
  Pigweed plant response rating (0 to 100 scale): 95
[7]; [14]
  Plant response rating, Pigweed: 90
[7]; [15]
  Plant response rating, Pigweed: 100
[8]; 16 g ai/ha, 0 to 100 scale
  Plant response rating, Ragweed: 65
[8]; 13 to 15 days
  Ragweed plant response rating (0 to 100 scale): 85
[8]; [14]
  Plant response rating, Ragweed: 80
[8]; [15]
  Plant response rating, Ragweed: 95
[9]; 16 g ai/ha, 0 to 100 scale
  Plant response rating, Wheat: 0
[9]; 13 to 15 days
  Wheat plant response rating (0 to 100 scale): 0
[9]; [14]
  Plant response rating, Wheat: 0
[9]; [15]
  Plant response rating, Wheat: 0
[10]; 16 g ai/ha, 0 to 100 scale
  Plant response rating, Foxtail, Green: 40
[10]; 13 to 15 days
  Foxtail, Green plant response rating (0 to 100 scale): 90
[10]; [14]
  Plant response rating, Foxtail, Green: 70
[10]; [15]
  Plant response rating, Foxtail, Green: 95
[11]; 16 g ai/ha, 0 to 100 scale
  Plant response rating, Surinam Grass: 15
[11]; 13 to 15 days
  Surinam Grass plant response rating (0 to 100 scale): 60
[11]; [14]
  Plant response rating, Surinam Grass: 20
[11]; [15]
  Plant response rating, Surinam Grass: 65
[12]; 16 g ai/ha, 0 to 100 scale
  Plant response rating, Crabgrass, Large: 65
[12]; 13 to 15 days
  Crabgrass, Large plant response rating (0 to 100 scale): 75
[12]; [14]
  Plant response rating, Crabgrass, Large: 75
[12]; [15]
  Plant response rating, Crabgrass, Large: 80
[13]; 16 g ai/ha, 0 to 100 scale
  Plant response rating, Lambsquarters: 75
[13]; 13 to 15 days
  Lambsquarters plant response rating (0 to 100 scale): 95
[13]; [14]
  Plant response rating, Lambsquarters: 85
[13]; [15]
  Plant response rating, Lambsquarters: 98

## COCCCn1c(-c2cccc(Br)c2)ncc(C(=O)C2=C(O)CCCC2=O)c1=O [Compound 140]
[1]; 13 to 15 days
  Velvetleaf plant response rating (0 to 100 scale): 65
[1]; [14]
  Plant response rating, Velvetleaf: 50
[1]; [15]
  Plant response rating, Velvetleaf: 80
[1]; [16]
  Plant response rating, Velvetleaf: 85
[2]; 13 to 15 days
  Nutsedge, Yellow plant response rating (0 to 100 scale): 45
[2]; [14]
  Plant response rating, Nutsedge, Yellow: 10
[2]; [15]
  Plant response rating, Nutsedge, Yellow: 65
[2]; [16]
  Plant response rating, Nutsedge, Yellow: 75
[3]; 13 to 15 days
  Ryegrass, Italian plant response rating (0 to 100 scale): 0
[3]; [14]
  Plant response rating, Ryegrass, Italian: 0
[3]; [15]
  Plant response rating, Ryegrass, Italian: 0
[3]; [16]
  Plant response rating, Ryegrass, Italian: 5
[4]; 13 to 15 days
  Goosegrass plant response rating (0 to 100 scale): 65
[4]; [14]
  Plant response rating, Goosegrass: 45
[4]; [15]
  Plant response rating, Goosegrass: 70
[4]; [16]
  Plant response rating, Goosegrass: 85
[5]; 13 to 15 days
  Cupgrass, Woolly plant response rating (0 to 100 scale): 50
[5]; [14]
  Plant response rating, Cupgrass, Woolly: 50
[5]; [15]
  Plant response rating, Cupgrass, Woolly: 65
[5]; [16]
  Plant response rating, Cupgrass, Woolly: 65
[6]; 13 to 15 days
  Bromegrass, Downy plant response rating (0 to 100 scale): 5
[6]; [14]
  Plant response rating, Bromegrass, Downy: 0
[6]; [15]
  Plant response rating, Bromegrass, Downy: 5
[6]; [16]
  Plant response rating, Bromegrass, Downy: 20
[7]; 13 to 15 days
  Pigweed plant response rating (0 to 100 scale): 70
[7]; [14]
  Plant response rating, Pigweed: 55
[7]; [15]
  Plant response rating, Pigweed: 75
[7]; [16]
  Plant response rating, Pigweed: 98
[8]; 13 to 15 days
  Ragweed plant response rating (0 to 100 scale): 45
[8]; [14]
  Plant response rating, Ragweed: 25
[8]; [15]
  Plant response rating, Ragweed: 65
[8]; [16]
  Plant response rating, Ragweed: 75
[9]; 13 to 15 days
  Wheat plant response rating (0 to 100 scale): 5
[9]; [14]
  Plant response rating, Wheat: 5
[9]; [15]
  Plant response rating, Wheat: 10
[9]; [16]
  Plant response rating, Wheat: 15
[10]; 13 to 15 days
  Foxtail, Green plant response rating (0 to 100 scale): 60
[10]; [14]
  Plant response rating, Foxtail, Green: 45
[10]; [15]
  Plant response rating, Foxtail, Green: 85
[10]; [16]
  Plant response rating, Foxtail, Green: 95
[11]; 13 to 15 days
  Surinam Grass plant response rating (0 to 100 scale): 50
[11]; [14]
  Plant response rating, Surinam Grass: 50
[11]; [15]
  Plant response rating, Surinam Grass: 55
[11]; [16]
  Plant response rating, Surinam Grass: 65
[12]; 13 to 15 days
  Crabgrass, Large plant response rating (0 to 100 scale): 65
[12]; [14]
  Plant response rating, Crabgrass, Large: 50
[12]; [15]
  Plant response rating, Crabgrass, Large: 80
[12]; [16]
  Plant response rating, Crabgrass, Large: 90
[13]; 13 to 15 days
  Lambsquarters plant response rating (0 to 100 scale): 60
[13]; [14]
  Plant response rating, Lambsquarters: 45
[13]; [15]
  Plant response rating, Lambsquarters: 75
[13]; [16]
  Plant response rating, Lambsquarters: 80
